The structures appear in SMILES notation. The source made the active and inactive calls. The rule behind the calls is not given here. Residues, ends and D or L forms follow the SMILES beside them. *: point of attachment. Myristoyl = CCCCCCCCCCCCCC(=O)*; Lauroyl = CCCCCCCCCCCC(=O)* Where only a bound is given, the exact number is not on record here.

In data set [1] the test system is Cell membrane. The experiment in a line: Induction of cytoplasmic membrane disruption in Staphylococcus aureus ATCC 25923 measured for 15 mins by DiSC3-5 dye based fluorescence assay.
The subject of data set [2] is Staphylococcus aureus. The data set can be described thus: Ratio of MIC for antimicrobial activity against Staphylococcus aureus ATCC 25923 in presence of 2.5% serum to MIC for antimicrobial activity against Staphylococcus aureus ATCC 25923 in absence of serum. Type of data set: functional.
Data set [3] has as its system Staphylococcus aureus. The experiment in a line: Antimicrobial activity against Staphylococcus aureus ATCC 25923 assessed as reduction in bacterial growth at 0.5 to 1 times MIC preincubated for 4 hrs followed by replating on MHB agar and measured after 24 hrs by time kill assay. To be noted: time 28.0 hrs. Type of data set: functional, organism-based.
Another data set has as its system HEK-293T. The data set can be described thus: Cytotoxicity against HEK293T cells assessed as reduction in cell viability at 64 to 128 uM measured after 24 hrs by MTT assay. Conditions: human, dose 64-128 µM. Type of data set: cell-based. (In general: Tetrazolium assays rely on reduction of a dye to a coloured formazan, in cell work by metabolically active cells.)

The test system of data set [4] is Staphylococcus epidermidis. The data set can be described thus: Potentiation of ciprofloxacin-induced antimicrobial activity against ciprofloxacin-resistant Staphylococcus epidermidis ATCC 12228 assessed as change in ciprofloxacin MIC at 4 uM after 18 hrs by broth microdilution method relative to ciprofloxacin MIC. The class given is functional.
Data set [5] deals with Staphylococcus aureus. The experiment in a line: Antimicrobial activity against Staphylococcus aureus ATCC 25923 assessed as bacterial killing at 4 times MIC preincubated for 30 mins followed by replating on MHB agar and measured after 24 hrs by time kill assay. The class given is functional, organism-based. To be noted: time 24.5 hrs.
The subject of data set [6] is Staphylococcus aureus. The experiment in a line: Antimicrobial activity against Staphylococcus aureus ATCC 25923 assessed as reduction in bacterial growth at 0.5 times MIC preincubated for 4 hrs followed by replating on MHB agar and measured after 24 hrs by time kill assay. The class given is functional, organism-based. To be noted: time 28.0 hrs.
Data set [7] relates to Staphylococcus aureus. The data set can be described thus: Antimicrobial activity against Staphylococcus aureus ATCC 25923 assessed as bacterial killing at 2 times MIC preincubated for 2 hrs followed by replating on MHB agar and measured after 24 hrs by time kill assay. The class given is functional, organism-based. Conditions: time 26.0 hrs.
The nature of data set [8]: Stability in mouse serum assessed as parent compound remaining at volume ratio of 1:19 measured after 6 hrs by RP-HPLC analysis. Type of data set: ADME, cell-free. Conditions: read-out: Stabilty.
For data set [9], the system named is Cell membrane. The data set can be described thus: Induction of membrane disruption in Staphylococcus aureus ATCC 25923 assessed as PI-positive cells at 4 times MIC measured after 30 mins by propidium iodide staining based flow cytometry relative to control.
Data set [10] relates to Mus musculus. The experiment in a line: Antiinflammatory activity in Staphylococcus aureus ATCC 25923 infected neutropenia BALB/c mouse assessed as reduction in TNFalpha level in serum at 10 mg/kg, ip administered staring from 2 hrs post infection and measured 8 hrs post-infected in presence of ciprofloxacin. Type of data set: functional, organism-based. Conditions: time 6.0 hrs.

Data set [11] deals with Cell membrane. The data set can be described thus: Induction of cytoplasmic membrane disruption in Staphylococcus aureus ATCC 25923 at 0.5 to 4 times MIC measured for 15 mins by DiSC3-5 dye based fluorescence assay.
Data set [12] deals with Staphylococcus aureus. The experiment in a line: Antimicrobial activity against Staphylococcus aureus ATCC 25923 infected in neutropenia BALB/c mouse assessed as reduction in bacterial load in spleen at 10 mg/kg, ip administered staring from 2 hrs post infection and measured 8 hrs post-infected in presence of ciprofloxacin. Conditions: time 6.0 hrs. Type of data set: functional, organism-based.

The subject of data set [13] is Mus musculus. The data set can be described thus: Antiinflammatory activity in Staphylococcus aureus ATCC 25923 infected neutropenia BALB/c mouse assessed as reduction in TNFalpha level in serum at 10 to 20 mg/kg, ip administered staring from 2 hrs post infection and measured 8 hrs post-infected. Conditions: dose 10-20 mg/kg, time 6.0 hrs. Type of data set: functional, organism-based.

Data set [14] deals with Staphylococcus aureus. The experiment in a line: Antimicrobial activity against Staphylococcus aureus ATCC 25923 assessed as bacterial killing at 0.5 times MIC preincubated for 4 hrs followed by replating on MHB agar and measured after 24 hrs by time kill assay. To be noted: time 28.0 hrs. The class given is functional, organism-based.
Data set [15] deals with Staphylococcus aureus. The experiment in a line: Antimicrobial activity against Staphylococcus aureus ATCC 25923 infected in neutropenia BALB/c mouse assessed as reduction in lung bacterial load at 10 to 20 mg/kg, ip administered staring from 2 hrs post infection and measured 8 hrs post-infected. Type of data set: functional, organism-based. Conditions: dose 10-20 mg/kg, time 6.0 hrs.

Data set [16] has as its system Staphylococcus aureus. The experiment in a line: Antimicrobial activity against Staphylococcus aureus ATCC 25923 infected in neutropenia BALB/c mouse assessed as reduction in lung bacterial load at 10 mg/kg, ip administered staring from 2 hrs post infection and measured 8 hrs post-infected in presence of ciprofloxacin. The class given is functional, organism-based. To be noted: time 6.0 hrs.

For data set [17], the system named is Staphylococcus aureus. The data set can be described thus: Antimicrobial activity against Staphylococcus aureus ATCC 25923 assessed as bacterial killing at MIC preincubated for 1 hr followed by replating on MHB agar and measured after 24 hrs by time kill assay. Type of data set: functional, organism-based. To be noted: time 25.0 hrs.
Data set [18] in a line: Toxicity in BALB/c mouse assessed as effect on motility at 80 mg/kg, ip administered as single dose measured for 5 days. The class given is organism-based. Conditions: in vivo, 120 h, time 5 day.
Data set [19] in a line: Toxicity in BALB/c mouse assessed as swelling of renal tubular epithelial cells at 80 mg/kg, ip administered as single dose measured after 5 days. Type of data set: organism-based. Conditions: in vivo, 120 h, time 5 day.
The nature of data set [20]: Toxicity in BALB/c mouse assessed as inflammatory cell infiltration in liver at 80 mg/kg, ip administered as single dose measured after 5 days. The class given is organism-based. To be noted: in vivo, 120 h, time 5 day.
The test system of data set [21] is Staphylococcus aureus. The experiment in a line: Antimicrobial activity against Staphylococcus aureus ATCC 25923 assessed as bacterial killing at 2 to 4 times MIC preincubated for 30 mins followed by replating on MHB agar and measured after 24 hrs by time kill assay. Type of data set: functional, organism-based. To be noted: time 24.5 hrs.
A short description of data set [22]: Cytotoxicity against HEK293T cells assessed as cell viability at 128 uM measured after 24 hrs by MTT assay relative to control. The class given is cell-based, HEK-293T. To be noted: human, read-out: Activity.
Data set [23] is described as follows: Toxicity in BALB/c mouse assessed as inflammatory cell infiltration in liver at 20 to 40 mg/kg, ip administered as single dose measured after 5 days. To be noted: in vivo, 120 h, dose 20-40 mg/kg, time 5 day. Type of data set: organism-based.
Data set [24] deals with Staphylococcus aureus. The experiment in a line: Antimicrobial activity against Staphylococcus aureus ATCC 25923 infected in neutropenia BALB/c mouse assessed as reduction in bacterial load in kidney at 10 to 20 mg/kg, ip administered staring from 2 hrs post infection and measured 8 hrs post-infected. Type of data set: functional, organism-based. Conditions: dose 10-20 mg/kg, time 6.0 hrs.

Data set [25] is described as follows: Toxicity in BALB/c mouse assessed as inflammatory cell infiltration in kidney at 80 mg/kg, ip administered as single dose measured after 5 days. To be noted: in vivo, 120 h, time 5 day. The class given is organism-based.
The nature of data set [26]: Stability in mouse serum assessed as drug degradation at volume ratio of 1:19 measured after 6 hrs by RP-HPLC analysis. The class given is ADME, cell-free. Conditions: read-out: Drug degradation.
Data set [27] in a line: Toxicity in BALB/c mouse assessed as eosinophilic mass in the renal tubular lumen at 80 mg/kg, ip administered as single dose measured after 5 days. The class given is organism-based. To be noted: in vivo, 120 h, time 5 day.
Data set [28] can be described thus: Toxicity in BALB/c mouse assessed as ruffled fur at 80 mg/kg, ip administered as single dose measured for 5 days. The class given is organism-based. To be noted: in vivo, 120 h, time 5 day.
Data set [29] can be described thus: Toxicity in BALB/c mouse assessed as effect on body weight at 20 to 80 mg/kg, ip administered as single dose measured for 5 days. Type of data set: organism-based. To be noted: in vivo, 120 h, dose 20-80 mg/kg, time 5 day.
For data set [30], the system named is Staphylococcus aureus. The experiment in a line: Antimicrobial activity against Staphylococcus aureus ATCC 25923 infected in neutropenia BALB/c mouse assessed as reduction in bacterial load in liver at 10 mg/kg, ip administered staring from 2 hrs post infection and measured 8 hrs post-infected in presence of ciprofloxacin. Type of data set: functional, organism-based. Conditions: time 6.0 hrs.

In data set [31] the test system is Staphylococcus aureus. The data set can be described thus: Antimicrobial activity against Staphylococcus aureus ATCC 25923 infected in neutropenia BALB/c mouse assessed as reduction in bacterial load in spleen at 10 to 20 mg/kg, ip administered staring from 2 hrs post infection and measured 8 hrs post-infected. Type of data set: functional, organism-based. Conditions: dose 10-20 mg/kg, time 6.0 hrs.

For the compound `CCCCCCCCCCCC(=O)N[C@@H](CCCNC(=N)N)C(=O)N[C@@H](CCCNC(=N)N)C(=O)N[C@@H](Cc1c[nH]c2ccccc12)C(N)=O` (Lauroyl-Arg-Arg-Trp-NH2), the Activity entry is “Dose-dependent effect” with Cell membrane [1], “Toxic” with HEK-293T and 77.2% in the data set on Cell membrane [9]. Besides, the Ratio in the data set on Staphylococcus aureus [2] was determined as 8. Moreover, in the data set on Staphylococcus aureus [3], the outcome was inactive. In addition, the “fold change (FC)” value in [4] is listed as 2. Further, the outcome with Staphylococcus aureus [5], with Staphylococcus aureus [6] and with Staphylococcus aureus [7] was Active. The remaining at 6 h in data set [8] was 70%.
`CCCCCCCCCCCCCC(=O)N[C@@H](CCCNC(=N)N)C(=O)N[C@@H](Cc1c[nH]c2ccccc12)C(=O)N[C@@H](Cc1c[nH]c2ccccc12)C(N)=O` (Myristoyl-Arg-Trp-Trp-NH2): the result with Mus musculus [10], in the data set on Cell membrane [11], in the data set on Staphylococcus aureus [12], with Mus musculus [13], in the data set with Staphylococcus aureus [15] and in the data set with Staphylococcus aureus [16] was Active. The outcome with Staphylococcus aureus [17], with Staphylococcus aureus [21], in the data set with Staphylococcus aureus [24], in the data set with Staphylococcus aureus [30] and in the data set on Staphylococcus aureus [31] was Active. In the data set on Staphylococcus aureus [14], the outcome was inactive. For the same compound, the “fold change (FC)” value in [4] came out at 2. In addition, the Activity entry in data set [18] was “Toxic”; in [19] it was “Toxic”; in data set [20], “Toxic”; in [23], “Non-Toxic”; in data set [25], “Toxic”; in data set [27] it was “Toxic”. The Activity result in data set [28] and in data set [29] was “Toxic” each time. For the same compound, in data set [22], the viability at 24 h, 128 µM is greater than 80%. Also, the metabolised at 6 h in [26] is 70%.

For the origin of these results see ChEMBL document CHEMBL4706653, “Ultra-short lipopeptides against gram-positive bacteria while alleviating antimicrobial resistance” (Eur J Med Chem, 2021).
